Assay results: patent US12338237B2, “Derivatives having 1,2,3,4-tetrahydronaphthalene moiety or pharmaceutically acceptable salt thereof and pharmaceutical compositions comprising the same” (YUHAN CORPORATION, priority 2019, dated 2025)
Read-outs that look alike come from different tables or passages of the source.

Legend:
[1] = tested on: GM1 production; assay: cells; type: cell-based
[2] = target: glucosylceramide synthase (GCS) (Homo sapiens (Human), UniProt Q16739); assay: Evaluation of inhibitory activities against GCS (enzyme reaction with A549 cell lysate, NBD C6-ceramide, HPLC fluorescence); type: biochemical; details: GCS activity in A549 cell lysate, 37° C. for 90 minutes
Protocol: Ibiglustat, known as a GCS inhibitor, was used as a control.
After the cells attached to the culture dish were washed with phosphate buffered saline (PBS), the cells were scraped off with a cell scraper and then centrifuged (4000 rpm, 3 min, 4° C.) to collect the cells in a 50 ml tube. The cell pellets were suspended in a lysis buffer (50 mM HEPES, pH 7.3, containing 1× the protease/phosphatase inhibitor cocktail), lysed by sonication, and then the lysate was centrifuged (13000 rpm, 10 min, 4° C.). The obtained supernatant was used for the quantitative analysis of proteins. The amount of proteins was measured using the BCA protein assay kit, using bovine serum albumin as a standard.
Enzymatic reactions were initiated by sequentially adding the following reaction materials to a 96 deep-well plate. Thereafter, the enzymatic reactions were performed at 37° C. for 90 minutes.
The enzymatic reactions were stopped by adding 100 μl of chloroform/methanol (2:1, v/v). After vortexing for 15 seconds, each mixture was centrifuged (4000 rpm, 10 min, 18° C.). The lower layer (50 μl) was transferred to a new 96 deep-well plate and dried with a reduced concentrator.
Data analysis was performed by the following equations. % Area (Sample)=Area (GlcCer)/[Area (Cer)+Area (GlcCer)]×100 % GCS activity=[Area(Sample)−Area(ibiglustat)]/[Area(DMSO)−Area(ibiglustat)]×100

Chain of glucosylceramide synthase (GCS) (Q16739 whole entry, looked up): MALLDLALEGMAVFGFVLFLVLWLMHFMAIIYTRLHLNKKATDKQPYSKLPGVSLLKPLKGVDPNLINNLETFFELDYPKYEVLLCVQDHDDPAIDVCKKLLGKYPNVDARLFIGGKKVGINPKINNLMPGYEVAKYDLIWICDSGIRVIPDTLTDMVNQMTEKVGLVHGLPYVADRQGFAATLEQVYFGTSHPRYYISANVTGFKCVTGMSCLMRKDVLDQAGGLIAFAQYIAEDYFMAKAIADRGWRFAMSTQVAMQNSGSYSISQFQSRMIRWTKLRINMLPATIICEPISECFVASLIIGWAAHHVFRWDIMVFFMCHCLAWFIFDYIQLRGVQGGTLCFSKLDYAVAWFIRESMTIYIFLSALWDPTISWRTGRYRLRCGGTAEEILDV

SMILES | IC50 ([1]; Homo sapiens, Jurkat, 72 h) [nM] | IC50 [2] [nM] | IC50 ([1]; read-out: IC50) [nM]
CC(C)Cc1ccc(-c2ccc3c(c2)CCCC3NC(=O)O[C@@H]2CN3CCC2CC3)cc1 (stereo partly drawn) [Example 35, (S)-quinuclidin-3-yl (6-(4-isobutylphenyl)-1,2,3,4-tetrahydronaphthalen-1-yl)carbamate] | 265 | 9.16 | 
Cc1ccc(-c2ccc3c(c2)C(NC(=O)O[C@@H]2CN4CCC2CC4)CCC3)cc1 (stereo partly drawn) [Example 57, (S)-quinuclidin-3-yl (7-(p-tolyl)-1,2,3,4-tetrahydronaphthalen-1-yl)carbamate] | 81.2 | 23.4 | 
CCCOc1ccc(-c2ccc3c(c2)CCC(C)(C)C3NC(=O)O[C@@H]2CN3CCC2CC3)cc1Cl (stereo partly drawn) [Example 141, (S)-quinuclidin-3-yl (6-(3-chloro-4-propoxyphenyl)-2,2-dimethyl-1,2,3,4-tetrahydronaphthalen-1-yl)carbamate] | 1.1 | 1.51 | 
CC1(C)CCc2cc(-c3ccc(Cl)cc3)ccc2C1NC(=O)O[C@@H]1CN2CCC1CC2 (stereo partly drawn) [Example 87, (S)-quinuclidin-3-yl (6-(4-chlorophenyl)-2,2-dimethyl-1,2,3,4-tetrahydronaphthalen-1-yl)carbamate] | 19.5 | 6 | 
COCOc1ccc(-c2ccc3c(c2)C(NC(=O)O[C@@H]2CN4CCC2CC4)C(C)(C)CC3)cc1 (stereo partly drawn) [Example 168, (S)-quinuclidin-3-yl (7-(4-(methoxymethoxy)phenyl)-2,2-dimethyl-1,2,3,4-tetrahydronaphthalen-1-yl)carbamate] | 70.7 | 17.9 | 
O=C(NC1CCCc2cc(-c3cc(Cl)ccc3Cl)ccc21)O[C@@H]1CN2CCC1CC2 (stereo partly drawn) [Example 23, (S)-quinuclidin-3-yl (6-(2,5-dichlorophenyl)-1,2,3,4-tetrahydronaphthalen-1-yl)carbamate] | 27.7 | 1.8 | 
CC(C)c1ccc(-c2ccc3c(c2)CCC2(CC2)C3NC(=O)O[C@@H]2CN3CCC2CC3)cc1 (stereo partly drawn) [Example 223, (S)-quinuclidin-3-yl (6′-(4-isopropylphenyl)-3′,4′-dihydro-1′H-spiro[cyclopropane-1,2′-naphthalen]-1′-yl)carbamate] | 24.1 | 2.4 | 
COc1ccc(-c2ccc3c(c2)CCC2(CC2)C3NC(=O)O[C@@H]2CN3CCC2CC3)cc1F (stereo partly drawn) [Example 202, (S)-quinuclidin-3-yl (6′-(3-fluoro-4-methoxyphenyl)-3′,4′-dihydro-1′H-spiro[cyclopropane-1,2′-naphthalen]-1′-yl)carbamate] | 24.4 | 1.16 | 
COc1cccc(-c2ccc3c(c2)C(NC(=O)O[C@@H]2CN4CCC2CC4)CCC3)c1 (stereo partly drawn) [Example 77, (S)-quinuclidin-3-yl (7-(3-methoxyphenyl)-1,2,3,4-tetrahydronaphthalen-1-yl)carbamate] | 197 | 74.9 | 
CCCOc1ccc(-c2ccc3c(c2)CCC(C)(C)C3NC(=O)O[C@@H]2CN3CCC2CC3)cc1F (stereo partly drawn) [Example 145, (S)-quinuclidin-3-yl (6-(3-fluoro-4-propoxyphenyl)-2,2-dimethyl-1,2,3,4-tetrahydronaphthalen-1-yl)carbamate] | 0.7 | 0.87 | 
COCOc1ccccc1-c1ccc2c(c1)CCCC2NC(=O)O[C@@H]1CN2CCC1CC2 (stereo partly drawn) [Example 30, (S)-quinuclidin-3-yl (6-(2-(methoxymethoxy)phenyl)-1,2,3,4-tetrahydronaphthalen-1-yl)carbamate] | 71.4 | 7.93 | 
COc1ccc(-c2cc3c(cc2F)C(NC(=O)O[C@@H]2CN4CCC2CC4)C(C)(C)CC3)cc1F (stereo partly drawn) [Example 227, (S)-quinuclidin-3-yl (7-fluoro-6-(3-fluoro-4-methoxyphenyll)-2,2-dimethyl-1,2,3,4-tetrahydronaphthalen-1-yl)carbamate] |  | 0.5 | 12.8
CC(C)Oc1ccc(-c2cc3c(cc2F)C(NC(=O)O[C@@H]2CN4CCC2CC4)C(C)(C)CC3)cc1 (stereo partly drawn) [Example 232, (S)-quinuclidin-3-yl (7-fluoro-6-(4-isopropoxyphenyl)-2,2-dimethyl-1,2,3,4-tetrahydronaphthalen-1-yl)carbamate] | 2.7 | 0.29 | 
CC1(C)CCc2ccc(-c3cccc(OC(F)(F)F)c3)cc2C1NC(=O)O[C@@H]1CN2CCC1CC2 (stereo partly drawn) [Example 158, (S)-quinuclidin-3-yl (2,2-dimethyl-7-(3-(trifluoromethoxy)phenyl)-1,2,3,4-tetrahydronaphthalen-1-yl)carbamate] | 249 | 34.2 | 
CC(C)Oc1cccc(-c2ccc3c(c2)CCC(C)(C)C3NC(=O)O[C@@H]2CN3CCC2CC3)c1 (stereo partly drawn) [Example 132, (S)-quinuclidin-3-yl (6-(3-isopropoxyphenyl)-2,2-dimethyl-1,2,3,4-tetrahydronaphthalen-1-yl)carbamate] | 2 | 1.16 | 
CC1(C)CCc2cc(-c3cc(Cl)cc(Cl)c3)ccc2C1NC(=O)O[C@@H]1CN2CCC1CC2 (stereo partly drawn) [Example 107, (S)-quinuclidin-3-yl (6-(3,5-dichlorophenyl)-2,2-dimethyl-1,2,3,4-tetrahydronaphthalen-1-yl)carbamate] | 6.5 | 5.86 | 
CCCCOc1c(C)cc(-c2ccc3c(c2)CCC(C)(C)C3NC(=O)O[C@@H]2CN3CCC2CC3)cc1C (stereo partly drawn) [Example 147, (S)-quinuclidin-3-yl (6-(4-butoxy-3,5-dimethylphenyl)-2,2-dimethyl-1,2,3,4-tetrahydronaphthalen-1-yl)carbamate] | 0.1 | 1 | 
COc1ccc(-c2ccc3c(c2)CCC(C)(C)C3NC(=O)O[C@@H]2CN3CCC2CC3)cc1Cl (stereo partly drawn) [Example 139, (S)-quinuclidin-3-yl (6-(3-chloro-4-methoxyphenyl)-2,2-dimethyl-1,2,3,4-tetrahydronaphthalen-1-yl)carbamate] | 8.8 | 4.78 | 
CN(C)c1cccc(-c2ccc3c(c2)CCC2(CC2)C3NC(=O)O[C@@H]2CN3CCC2CC3)c1 (stereo partly drawn) [Example 207, (S)-quinuclidin-3-yl (6′-(3-(dimethylamino)phenyl)-3′,4′-dihydro-1′H-spiro[cyclopropane-1,2′-naphthalen]-1′-yl)carbamate] | 57.3 | 23.2 | 
COCCOc1ccccc1-c1ccc2c(c1)CCC1(CC1)C2NC(=O)O[C@@H]1CN2CCC1CC2 (stereo partly drawn) [Example 196, (S)-quinuclidin-3-yl (6′-(2-(2-methoxyethoxy)phenyl)-3′,4′-dihydro-1′H-spiro[cyclopropane-1,2′-naphthalen]-1′-yl)carbamate] | 25.2 | 6.02 | 
Cc1ccccc1-c1ccc2c(c1)C(NC(=O)O[C@@H]1CN3CCC1CC3)CCC2 (stereo partly drawn) [Example 74, (S)-quinuclidin-3-yl (7-(o-tolyl)-1,2,3,4-tetrahydronaphthalen-1-yl)carbamate] | 54.4 | 14.4 | 
CC1(C)CCc2cc(-c3cccc(F)c3F)ccc2C1NC(=O)O[C@@H]1CN2CCC1CC2 (stereo partly drawn) [Example 102, (S)-quinuclidin-3-yl (6-(2,3-difluorophenyl)-2,2-dimethyl-1,2,3,4-tetrahydronaphthalen-1-yl)carbamate] |  |  | 1.43
COc1ccc(-c2ccc3c(c2)CCC(C)(C)C3NC(=O)O[C@@H]2CN3CCC2CC3)c(OC)c1 (stereo partly drawn) [Example 134, (S)-quinuclidin-3-yl (6-(2,4-dimethoxyphenyl)-2,2-dimethyl-1,2,3,4-tetrahydronaphthalen-1-yl)carbamate] | 6.6 | 2.95 | 
O=C(NC1CCCc2cc(-c3cc(F)ccc3F)ccc21)O[C@@H]1CN2CCC1CC2 (stereo partly drawn) [Example 16, (S)-quinuclidin-3-yl (6-(2,5-difluorophenyl)-1,2,3,4-tetrahydronaphthalen-1-yl)carbamate] | 34 | 3.96 | 
CC1(C)CCc2cc(-c3cc(Cl)ccc3Cl)ccc2C1NC(=O)O[C@@H]1CN2CCC1CC2 (stereo partly drawn) [Example 105, (S)-quinuclidin-3-yl (6-(2,5-dichlorophenyl)-2,2-dimethyl-1,2,3,4-tetrahydronaphthalen-1-yl)carbamate] | 0.21 | 1.39 | 
COCCOc1ccccc1-c1ccc2c(c1)CCCC2NC(=O)O[C@@H]1CN2CCC1CC2 (stereo partly drawn) [Example 29, (S)-quinuclidin-3-yl (6-(2-(2-methoxyethoxy)phenyl)-1,2,3,4-tetrahydronaphthalen-1-yl)carbamate] | 156 | 8.52 | 
CC1(C)CCc2cc(-c3ccccc3OC(F)(F)F)ccc2C1NC(=O)O[C@@H]1CN2CCC1CC2 (stereo partly drawn) [Example 97, (S)-quinuclidin-3-yl (2,2-dimethyl-6-(2-(trifluoromethoxy)phenyl)-1,2,3,4-tetrahydronaphthalen-1-yl)carbamate] | 1.39 | 0.86 | 
O=C(NC1CCCc2cc(-c3ccc(C4CC4)cc3)ccc21)O[C@H]1CN2CCC1CC2 (stereo partly drawn) [Example 37, (S)-quinuclidin-3-yl (6-(4-cyclopropyl)-1,2,3,4-tetrahydronaphthalen-1-yl)carbamate] |  | 5.07 | 286
O=C(NC1CCCc2ccc(-c3cccc(C(F)(F)F)c3)cc21)O[C@@H]1CN2CCC1CC2 (stereo partly drawn) [Example 60, (S)-quinuclidin-3-yl (7-(3-(trifluoromethyl)phenyl)-1,2,3,4-tetrahydronaphthalen-1-yl)carbamate] |  | 106 | 
